Patent US5578620A, “Thiazolidine and oxazolidine derivatives, their preparation and their medical use” (Sankyo Company, Limited, priority 1994, dated 1996)

What was measured:
[1] = tested on: blood glucose level (BGL); test: Hypoglycemic activity (blood glucose lowering rate) in hyperglycemic KK mice; assay type: in vivo, male mice of the KK strain; settings: Mus musculus, oral, 18 hours
Experimental: The test animals used were hyperglycemic male mice of the KK strain, each having a body weight more than 40 g. Each animal was orally administered a test compound in the amount shown in the following Table 8 and then allowed to feed freely for 18 hours. At the end of this time, blood was collected from the tail veins without anesthesia. The blood glucose level (BGL) was determined by means of a glucose analyzer (GL-101, manufactured by Mitsubishi Kasei Co. or Glucoroder manufactured by Shino Test Co.).
The blood glucose lowering rate was calculated by the following equation:
Blood glucose lowering rate (%)=
BGLs is the BGL in the group administered a solvent only, but no active compound; and
BGLt is the BGL in the group administered a test compound.
The results are shown in the following Table 8, in which each compound of the present invention is identified by the number of one of the following Examples in which its preparation is illustrated.

[2] = molecular target: T1, Bovine lens aldose reductase (Bos taurus, UniProt P16116); test: Inhibition of Aldose reductase; assay type: biochemical; settings: for inhibition at 5 µg/mL: read-out: Inhibition at 5 μg/ml
T1 construct: Bovine lens aldose reductase was separated and partially purified; from tissue; host or cells: bovine lens
Experimental: Bovine lens aldose reductase was separated and partially purified by the method of S. Hyman and J. H. Kinoshita [J. Biol. Chem., 240, 877 (1965)] and K. Inagaki, I. Miwa and J. Okuda [Arch. Biochem. Biophys., 316, 337 (1982)], and its activity was determined photometrically by the method of Varma et al. [Biochem. Pharmac., 25, 2505 (1976)]. […]

[3] = Toxicity, oral administration for 2 weeks; assay type: in vivo, male F344 rats; settings: 50 mg/kg; for mortality rate: male F344 rats, oral, 2 weeks
Experimental: The toxicity of the compounds of the present invention was tested on male F344 rats, divided into groups of 5. The test compound was adminstered orally to each test animal at a dose of 50 mg/kg of body weight for 2 weeks. The test compounds used were those of Examples 20, 45 (polar, less polar) and 47 (polar).

SMILES: CC(COc1ccc(CC2SC(=O)NC2=O)cc1)NCC(O)COCCc1ccccc1 (centres unmarked) [Example 18, 5-{4-[2'-(3-2'-phenylethoxy-2-hydroxypropylamino)propoxy]benzyl}thiozolidine-2,4-dione]
- inhibition in vivo at 1 mg/kg [1]: 10.5%

SMILES: CC(COc1ccc(CC2SC(=O)NC2=O)cc1)NCC(O)COCCCCCCc1ccccc1 (centres unmarked) [Example 20, 5-{4-[2-(3-6'-Phenylhexyloxy-2-hydroxypropylamino)propoxy]benzyl}thiazolidine-2,4-dione]
- IC50 [2]: 3.5 µM
- inhibition at 5 µg/mL [2]: 69.1%
- mortality rate [3]: zero
- abnormalities observed during 2 successive weeks ([3]; rat, in vivo, po): no abnormalities which could be attributed to the test coumpounds
- inhibition in vivo at 1 mg/kg [1]: 37.9%

SMILES: CC(C)C(COc1ccc(CC2SC(=O)NC2=O)cc1)N1CC(COc2cccc(Cl)c2)OC1=O (centres unmarked) [51 (polar), 5-{4-[2-(5-3'-Chlorophenoxymethyl-2-oxooxazolidin-3-yl)-3-methylbutoxy]benzyl}thiazolidine-2,4-dione]
- inhibition in vivo at 1 mg/kg [1]: 20.8%

SMILES: CC(COc1ccc(CC2SC(=O)NC2=O)cc1)N1CC(COc2cccc(Cl)c2)OC1=S (single isomer, unassigned) [Example 45 (less polar), 5-{4-[2-(5-3'-Chlorophenoxymethyl-2-thioxooxazolidin-3-yl)propoxy]benzyl}thiazolidine-2,4-dione]
- mortality rate [3]: zero
- abnormalities observed during 2 successive weeks ([3]; rat, in vivo, po): no abnormalities which could be attributed to the test coumpounds
- hematological examinations (red blood cell counts) ([3]; rat, in vivo, po): slighly decrease in red blood cell counts
- inhibition in vivo at 1 mg/kg [1]: 27.2%

SMILES: CC(COc1ccc(CC2SC(=O)NC2=O)cc1)N1CC(COCCCCCCCc2ccccc2)OC1=O (centres unmarked) [Example 29, 5-{4-[2-(5-7'-Phenylheptyloxymethyl-2-oxooxazolidin-3-yl)propoxy]benzyl}thiazolidine-2,4-dione]
- inhibition in vivo at 1 mg/kg [1]: 18.1%

SMILES: CC(COc1ccc(CC2SC(=O)NC2=O)cc1)N1CC(COCCCCCCCCc2ccccc2)OC1=O (centres unmarked) [Example 28, 5-{4-[2-(5-8'-Phenyloctyloxymethyl-2-oxooxazolidin-3-yl)propoxy]benzyl}thiazolidine-2,4-dione]
- inhibition in vivo at 1 mg/kg [1]: 13.6%

SMILES: C[C@H](COc1ccc(CC2SC(=O)NC2=O)cc1)N1C[C@@H](COc2cccc(Cl)c2)OC1=O (stereo partly drawn) [Example 11, 5-[4-{2(R)-[5(S)-(3-Chlorophenoxymethyl)-2-oxooxazolidin-3-yl]propoxy}benzyl]thiazolidine-2,4-dione]
- inhibition in vivo at 1 mg/kg [1]: 24.3%

SMILES: CC(COc1ccc(CC2SC(=O)NC2=O)cc1)N1CC(COc2ccc(-c3ccccc3)cc2)OC1=S (centres unmarked) [36 (polar), 5-{4-[2-(5-4'-Phenylphenoxymethyl-2-thioxooxazolidin-3-yl)propoxy]benzyl}thiazolidine-2,4-dione]
- inhibition in vivo at 1 mg/kg [1]: 13.7%

SMILES: CC(COc1ccc(CC2SC(=O)NC2=O)cc1)NCC(O)COCc1ccccc1 (centres unmarked) [Example 15, 5-{4-[2-(3-Benzyloxy-2-hydroxypropylamino)propoxy]benzyl}thiazolidine-2,4-dione]
- inhibition in vivo at 1 mg/kg [1]: 19.1%

SMILES: CC(COc1ccc(CC2SC(=O)NC2=O)cc1)N1CC(COc2cccc(Cl)c2)OC1=S (centres unmarked) [45 (polar), 5-{4-[2-(5-3'-Chlorophenoxymethyl-2-thioxooxazolidin-3-yl)propoxy]benzyl}thiazolidine-2,4-dione]
- mortality rate [3]: zero
- abnormalities observed during 2 successive weeks ([3]; rat, in vivo, po): no abnormalities which could be attributed to the test coumpounds
- inhibition in vivo at 1 mg/kg [1]: 23.9%

SMILES: CCC(COc1ccc(CC2SC(=O)NC2=O)cc1)N1CC(COc2cccc(Cl)c2)OC1=O (centres unmarked) [47 (polar), 5-{4-[2-(5-3'-Chlorophenoxymethyl-2-oxooxazolidin-3-yl)butoxy]benzyl}thiazolidine-2,4-dione]
- IC50 [2]: 0.455 µM
- inhibition at 5 µg/mL [2]: 86.6%
- mortality rate [3]: zero
- abnormalities observed during 2 successive weeks ([3]; rat, in vivo, po): no abnormalities which could be attributed to the test coumpounds
- inhibition in vivo at 1 mg/kg [1]: 34.7%

SMILES: O=C1NC(=O)C(Cc2ccc(OCCN3CC(COc4cccc(Cl)c4)OC3=O)cc2)S1 (centres unmarked) [Example 6, 5-{4-[2-(5-3'-Chlorophenoxymethyl-2-oxooxazolidin-3-yl)ethoxy]benzyl}thiazolidine-2,4-dione]
- inhibition in vivo at 1 mg/kg [1]: 19.2%

SMILES: CC(COc1ccc(CC2SC(=O)NC2=O)cc1)NCC(O)COCc1cccc(Cl)c1 (centres unmarked) [Example 41, 5-{4-[2-(3-3'-Chlorobenzyloxy-2-hydroxypropylamino)propoxy]benzyl}thiazolidine-2,4-dione]
- IC50 [2]: 6.68 µM
- inhibition at 5 µg/mL [2]: 57.4%
- inhibition in vivo at 1 mg/kg [1]: 18.2%

SMILES: CCCC(COc1ccc(CC2SC(=O)NC2=O)cc1)N1CC(COc2cccc(Cl)c2)OC1=O (single isomer, unassigned) [Example 50 (less polar), 5-{4-[2-(5-3'-Chlorophenoxymethyl-2-oxooxazolidin-3-yl)pentyloxy]benzyl}thiazolidine-2,4-dione]
- inhibition in vivo at 1 mg/kg [1]: 17.5%

SMILES: CC(COc1ccc(CC2SC(=O)NC2=O)cc1)N1CC(COc2cccc(Cl)c2)OC1=O (centres unmarked) [Example 1, 5-{4-[2-(5-3'-Chlorophenoxymethyl-2-oxooxazolidin-3-yl)propoxy]benzyl}thiazolidine-2,4-dione]
- IC50 [2]: 0.224 µM
- inhibition at 5 µg/mL [2]: 89.6%
- inhibition in vivo at 1 mg/kg [1]: 28.5%

SMILES: COc1ccc(OCC2CN(C(C)COc3ccc(CC4SC(=O)NC4=O)cc3)C(=O)O2)cc1 (single isomer, unassigned) [31 (less polar), 5-{4-[2-(5-4'-Methoxyphenoxymethyl-2-oxooxazolidin-3-yl)propoxy]benzyl}thiazolidine-2,4-dione]
- IC50 [2]: 3.91 µM
- inhibition at 5 µg/mL [2]: 67.8%
- inhibition in vivo at 1 mg/kg [1]: 21.6%

SMILES: CC(COc1ccc(CC2SC(=O)NC2=O)cc1)NCC(O)Cc1ccccc1 (centres unmarked) [Example 7, 5-{4-[2-(3-Phenyl-2-hydroxypropylamino)propoxy]benzyl}thiazolidine-2,4-dione]
- inhibition in vivo at 1 mg/kg [1]: 36.3%

SMILES: CC(COc1ccc(CC2SC(=O)NC2=O)cc1)N1CC(COCc2ccccc2)OC1=O (centres unmarked) [Example 22, 5-{4-[2-(5-Benzyloxymethyl-2-oxooxazolidin-3-yl)propoxy]benzyl}thiazolidine-2,4-dione]
- IC50 [2]: 3.61 µM
- inhibition at 5 µg/mL [2]: 70.1%
- inhibition in vivo at 1 mg/kg [1]: 14.3%

SMILES: C[C@@H](COc1ccc(CC2SC(=O)NC2=O)cc1)N1C[C@@H](COc2cccc(Cl)c2)OC1=O (stereo partly drawn) [Example 13, 5-[4-{2(S)-[5(S)-(3-Chlorophenoxymethyl)-2-oxooxazolidin-3-yl]propoxy}benzyl]thiazolidine-2,4-dione]
- inhibition in vivo at 1 mg/kg [1]: 29.9%

SMILES: CC(COc1ccc(CC2SC(=O)NC2=O)cc1)N1CC(COc2ccc(-c3ccccc3)cc2)OC1=O (centres unmarked) [Example 35, 5-{4-[2-(5-4'-Phenylphenoxymethyl-2-oxooxazolidin-3-yl)propoxy]benzyl}thiazolidine-2,4-dione]
- inhibition in vivo at 1 mg/kg [1]: 13.5%

SMILES: CC(COc1ccc(CC2SC(=O)NC2=O)cc1)NCC(O)COCCCCc1ccccc1 (centres unmarked) [Example 19, 5-{4-[2-(3-4'-Phenylbutoxy-2-hydroxypropylamino)propoxy]benzyl}thiazolidine-2,4-dione]
- IC50 [2]: 8.01 µM
- inhibition at 5 µg/mL [2]: 56.1%
- inhibition in vivo at 1 mg/kg [1]: 15.8%
